In ChEMBL document CHEMBL3351875, “Synthesis of Deuterated Benzopyran Derivatives as Selective COX-2 Inhibitors with Improved Pharmacokinetic Properties” (ACS Med Chem Lett, 2014):
pIC50: −log10 of the molar value. Blank lines part the entries; values can stand above or below the molecule they belong to.

Tests used:
[1] = molecular target: Prostaglandin G/H synthase 1 (Homo sapiens, UniProt P23219); experiment: Inhibition of human recombinant COX1 pre-incubated for 15 mins before fluorometric substrate addition by fluorescence based assay
Prostaglandin G/H synthase 1, sequence (P23219 whole entry): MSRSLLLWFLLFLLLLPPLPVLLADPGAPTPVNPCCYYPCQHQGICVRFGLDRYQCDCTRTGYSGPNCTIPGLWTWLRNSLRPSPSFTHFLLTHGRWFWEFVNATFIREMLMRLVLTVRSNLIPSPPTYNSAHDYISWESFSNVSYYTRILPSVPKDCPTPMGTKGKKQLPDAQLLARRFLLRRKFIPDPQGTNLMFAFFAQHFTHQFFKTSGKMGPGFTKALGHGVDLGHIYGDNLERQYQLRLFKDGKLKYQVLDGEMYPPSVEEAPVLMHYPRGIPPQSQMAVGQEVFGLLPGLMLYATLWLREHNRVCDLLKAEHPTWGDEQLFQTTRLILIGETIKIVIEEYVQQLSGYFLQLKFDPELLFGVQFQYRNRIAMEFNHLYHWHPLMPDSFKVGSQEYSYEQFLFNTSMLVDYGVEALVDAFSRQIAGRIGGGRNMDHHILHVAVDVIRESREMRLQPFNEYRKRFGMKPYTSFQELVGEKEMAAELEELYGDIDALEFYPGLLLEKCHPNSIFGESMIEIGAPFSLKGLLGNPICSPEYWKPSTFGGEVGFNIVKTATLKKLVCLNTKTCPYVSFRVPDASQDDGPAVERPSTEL

[2] = molecular target: T1, Prostaglandin G/H synthase 2 (Homo sapiens, UniProt P35354); experiment: Inhibition of human recombinant COX2 pre-incubated for 15 mins before fluorometric substrate addition by fluorescence based assay
T1 sequence (P35354 whole entry): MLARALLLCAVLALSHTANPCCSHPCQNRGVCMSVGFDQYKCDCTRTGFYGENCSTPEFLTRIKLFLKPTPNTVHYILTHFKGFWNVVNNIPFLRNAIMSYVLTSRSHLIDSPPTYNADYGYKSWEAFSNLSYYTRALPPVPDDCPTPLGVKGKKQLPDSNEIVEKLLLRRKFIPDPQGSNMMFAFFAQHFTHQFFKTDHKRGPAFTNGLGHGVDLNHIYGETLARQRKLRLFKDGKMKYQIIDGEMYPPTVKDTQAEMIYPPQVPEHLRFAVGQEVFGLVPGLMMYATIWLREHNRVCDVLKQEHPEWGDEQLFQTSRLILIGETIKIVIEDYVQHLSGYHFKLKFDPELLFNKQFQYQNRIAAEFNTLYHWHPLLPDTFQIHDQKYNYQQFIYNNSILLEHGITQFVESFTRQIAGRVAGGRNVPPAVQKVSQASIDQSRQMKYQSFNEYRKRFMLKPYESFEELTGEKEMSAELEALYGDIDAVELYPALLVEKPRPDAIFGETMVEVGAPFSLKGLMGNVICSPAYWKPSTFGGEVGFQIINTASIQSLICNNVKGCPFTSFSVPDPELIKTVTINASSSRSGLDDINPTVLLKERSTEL

[3] = (§1) Oral bioavailability in Sprague-Dawley rat at 10 mg/kg measured during 1 to 24 hrs by LC-MS method; format: ADME, organism-based; details: Sprague-Dawley, in vivo
Rattus norvegicus [4] = experiment: Antiinflammatory activity in orally dosed Sprague-Dawley rat model of carrageenan-induced foot paw edema assessed as reduction in edema by plethysmometry; format: functional, organism-based
Rattus norvegicus [5] = experiment: Volume of distribution in Sprague-Dawley rat at 10 mg/kg, po measured during 1 to 24 hrs by LC-MS method; format: ADME, organism-based; design: dose 10 mg/kg, route oral; details: in vivo
[6] = Cmax in Sprague-Dawley rat at 5 mg/kg, iv measured during 1 to 24 hrs by LC-MS method; format: ADME, organism-based; design: dose 5 mg/kg, route intravenous; details: in vivo
Rattus norvegicus [7] = experiment: Antinociceptive activity in orally dosed Sprague-Dawley rat model of carrageenan-induced foot paw hyperalgesia assessed as paw withdrawal latency; format: functional, organism-based
Rattus norvegicus [8] = experiment: Half life in Sprague-Dawley rat at 5 mg/kg, iv measured during 1 to 24 hrs by LC-MS method; format: ADME, organism-based; design: dose 5 mg/kg, route intravenous; details: in vivo
Rattus norvegicus [9] = experiment: Antiinflammatory activity in orally dosed Sprague-Dawley rat model of carrageenan-induced air pouch inflammation assessed as reduction in PGE2 level by ELISA method; format: functional, organism-based
[10] = (§2) AUC (0 to infinity) in Sprague-Dawley rat at 10 mg/kg, po measured during 1 to 24 hrs by LC-MS method; format: ADME, organism-based, Plasma; design: time infinity, dose 10 mg/kg, route oral; details: Sprague-Dawley, plasma
[11] = (§3) AUC (0 to infinity) in Sprague-Dawley rat at 5 mg/kg, iv measured during 1 to 24 hrs by LC-MS method; format: ADME, organism-based, Plasma; design: time infinity, dose 5 mg/kg, route intravenous; details: Sprague-Dawley, plasma
[12] = Apparent oral clearance in Sprague-Dawley rat at 5 mg/kg, iv measured during 1 to 24 hrs by LC-MS method; format: ADME, organism-based; design: dose 5 mg/kg, route oral; details: in vivo
[13] = Volume of distribution in Sprague-Dawley rat at 5 mg/kg, iv measured during 1 to 24 hrs by LC-MS method; format: ADME, organism-based; design: dose 5 mg/kg, route intravenous; details: in vivo
[14] = (§4) Apparent oral clearance in Sprague-Dawley rat at 10 mg/kg, po measured during 1 to 24 hrs by LC-MS method; format: ADME, organism-based; design: dose 10 mg/kg, route oral; details: Sprague-Dawley, in vivo
[15] = Cmax in Sprague-Dawley rat at 1 mg/kg, iv measured during 1 to 24 hrs by LC-MS method; format: ADME, organism-based; design: dose 1 mg/kg, route intravenous; details: in vivo
Rattus norvegicus [16] = experiment: AUC (0 to infinity) in Sprague-Dawley rat at 2.5 mg/kg, po measured during 1 to 24 hrs by LC-MS method; format: ADME, organism-based, Plasma; design: dose 2.5 mg/kg, route oral, time infinity; details: in vivo
[17] = Volume of distribution in Sprague-Dawley rat at 1 mg/kg, iv measured during 1 to 24 hrs by LC-MS method; format: ADME, organism-based; design: dose 1 mg/kg, route intravenous; details: in vivo
Rattus norvegicus [18] = experiment: Oral bioavailability in Sprague-Dawley rat at 2.5 mg/kg measured during 1 to 24 hrs by LC-MS method; format: ADME, organism-based; details: in vivo
Rattus norvegicus [19] = experiment: Apparent oral clearance in Sprague-Dawley rat at 2.5 mg/kg, po measured during 1 to 24 hrs by LC-MS method; format: ADME, organism-based; design: dose 2.5 mg/kg, route oral; details: in vivo
Rattus norvegicus [20] = experiment: AUC (0 to infinity) in Sprague-Dawley rat at 1 mg/kg, iv measured during 1 to 24 hrs by LC-MS method; format: ADME, organism-based, Plasma; design: time infinity, dose 1 mg/kg, route intravenous; details: in vivo
[21] = Apparent oral clearance in Sprague-Dawley rat at 1 mg/kg, iv measured during 1 to 24 hrs by LC-MS method; format: ADME, organism-based; design: dose 1 mg/kg, route oral; details: in vivo
Rattus norvegicus [22] = experiment: Half life in Sprague-Dawley rat at 1 mg/kg, iv measured during 1 to 24 hrs by LC-MS method; format: ADME, organism-based; design: dose 1 mg/kg, route intravenous; details: in vivo
Rattus norvegicus [23] = experiment: as §1; format: ADME, organism-based; details: in vivo
Rattus norvegicus [24] = experiment: Tmax in Sprague-Dawley rat at 10 mg/kg, po measured during 1 to 24 hrs by LC-MS method; format: ADME, organism-based; design: dose 10 mg/kg, route oral; details: in vivo
Rattus norvegicus [25] = experiment: as §2; format: ADME, organism-based, Plasma; design: time infinity, dose 10 mg/kg, route oral; details: in vivo
Rattus norvegicus [26] = experiment: Half life in Sprague-Dawley rat at 10 mg/kg, po measured during 1 to 24 hrs by LC-MS method; format: ADME, organism-based; design: dose 10 mg/kg, route oral; details: in vivo
[27] = Cmax in Sprague-Dawley rat at 10 mg/kg, po measured during 1 to 24 hrs by LC-MS method; format: ADME, organism-based; design: dose 10 mg/kg, route oral; details: in vivo
Rattus norvegicus [28] = experiment: as §4; format: ADME, organism-based; design: dose 10 mg/kg, route oral; details: in vivo
Rattus norvegicus [29] = experiment: Antiarthritic activity in Lewis rat model of adjuvant-induced arthritis administrated by oral gavage once daily; format: functional
Rattus norvegicus [30] = experiment: as §3; format: ADME, organism-based, Plasma; design: time infinity, dose 5 mg/kg, route intravenous; details: in vivo

pIC50 [1]: < 4.00
Structure (SMILES): Cc1cc(Cl)c2c(c1)C=C(C(=O)O)C(C(F)(F)F)O2 (stereo not drawn)

pIC50 [1]: < 4.00
pIC50 [2]: 8.05
Structure (SMILES): [2H]C([2H])([2H])c1cc2c(c(C([2H])([2H])[2H])c1Br)C=C(C(=O)O)[C@@H](C(F)(F)F)O2

bioavailability [3]: 112%
EC50 (Rattus norvegicus [4]): 2.26 mg/kg
Vd (Rattus norvegicus [5]): 0.57 L/kg
pIC50 [2]: 7.37
Cmax [6]: 26200 ng/mL
EC50 (Rattus norvegicus [7]): 3.82 mg/kg
t1/2 (Rattus norvegicus [8]): 2.733 h
EC50 (Rattus norvegicus [9]): 0.57 mg/kg
AUC(0-inf) [10]: 84800 ng·h/mL
AUC(0-inf) [11]: 37900 ng·h/mL
CL/F [12]: 2.25 mL/min/kg
Vd [13]: 0.529 L/kg
CL/F [14]: 2.08 mL/min/kg
Structure (SMILES): [2H]C([2H])([2H])c1cc2c(c(C([2H])([2H])[2H])c1Br)C=C(C(=O)O)C(C(F)(F)F)O2 (stereo not drawn)

pIC50 [1]: < 4.00
Structure (SMILES): [2H]C([2H])([2H])c1cc2c(c(C([2H])([2H])[2H])c1)OC(C(F)(F)F)C(C(=O)O)=C2 (stereo not drawn)

pIC50 [1]: < 4.00
Structure (SMILES): [2H]C([2H])([2H])c1cc2c(c(C([2H])([2H])[2H])c1Cl)C=C(C(=O)O)[C@@H](C(F)(F)F)O2

EC50 (Rattus norvegicus [4]): 6.48 mg/kg
EC50 (Rattus norvegicus [7]): 3.33 mg/kg
Cmax [15]: 9070 ng/mL
AUC (Rattus norvegicus [16]): 38900 µg/L.hr
EC50 (Rattus norvegicus [9]): 0.45 mg/kg
Vd [17]: 0.404 L/kg
F (Rattus norvegicus [18]): 110.7%
CL/F (Rattus norvegicus [19]): 1.1 mL/min/kg
AUC (Rattus norvegicus [20]): 14043.753 ng·h/mL
CL/F [21]: 1.2 mL/min/kg
t1/2 (Rattus norvegicus [22]): 3.909 h
Structure (SMILES): [2H]C([2H])([2H])c1cc(Cl)cc2c1OC(C(F)(F)F)C(C(=O)O)=C2 (stereo not drawn)

pIC50 [1]: < 4.00
Structure (SMILES): [2H]C([2H])([2H])c1cc(Cl)cc2c1O[C@H](C(F)(F)F)C(C(=O)O)=C2

F (Rattus norvegicus [23]): 78.5%
Vd (Rattus norvegicus [5]): 1.25 L/kg
pIC50 [1]: < 4.00
Tmax (Rattus norvegicus [24]): 0.438 h
Cmax [15]: 5040 ng/mL
EC50 (Rattus norvegicus [9]): 0.77 mg/kg
AUC (Rattus norvegicus [25]): 12846.927 ng·h/mL
Vd [17]: 0.45 L/kg
t1/2 (Rattus norvegicus [26]): 3.09 h
Cmax [27]: 6590 ng/mL
AUC (Rattus norvegicus [20]): 4898.988 ng·h/mL
CL/F [21]: 3.45 mL/min/kg
t1/2 (Rattus norvegicus [22]): 1.5 h
CL/F (Rattus norvegicus [28]): 3.25 mL/min/kg
Structure (SMILES): Cc1cc2c(c(C)c1Cl)C=C(C(=O)O)C(C(F)(F)F)O2 (stereo not drawn)

bioavailability [3]: 107%
EC50 (Rattus norvegicus [4]): 3 mg/kg
Vd (Rattus norvegicus [5]): 0.53 L/kg
pIC50 [2]: 7.41
Cmax [6]: 39000 ng/mL
EC50 (Rattus norvegicus [7]): 2.19 mg/kg
t1/2 (Rattus norvegicus [8]): 4.186 h
EC50 (Rattus norvegicus [9]): 0.27 mg/kg
AUC (Rattus norvegicus [25]): 142686.966 ng·h/mL
AUC (Rattus norvegicus [30]): 66436.832 ng·h/mL
CL/F [12]: 1.28 mL/min/kg
Vd [13]: 0.461 L/kg
CL/F [14]: 1.2 mL/min/kg
Structure (SMILES): [2H]C([2H])([2H])c1cc(Br)cc2c1OC(C(F)(F)F)C(C(=O)O)=C2 (stereo not drawn)
ED50 (Rattus norvegicus [29]): 0.42 mg/kg
